Structures are written as SMILES. pIC50: −log10 of the molar value. Active and inactive are the calls of the source. No rule for the calls is given here. A value given as a limit tells only on which side of the number the result lay.

Chain of Apelin receptor (Homo sapiens) (P35414 whole entry, looked up): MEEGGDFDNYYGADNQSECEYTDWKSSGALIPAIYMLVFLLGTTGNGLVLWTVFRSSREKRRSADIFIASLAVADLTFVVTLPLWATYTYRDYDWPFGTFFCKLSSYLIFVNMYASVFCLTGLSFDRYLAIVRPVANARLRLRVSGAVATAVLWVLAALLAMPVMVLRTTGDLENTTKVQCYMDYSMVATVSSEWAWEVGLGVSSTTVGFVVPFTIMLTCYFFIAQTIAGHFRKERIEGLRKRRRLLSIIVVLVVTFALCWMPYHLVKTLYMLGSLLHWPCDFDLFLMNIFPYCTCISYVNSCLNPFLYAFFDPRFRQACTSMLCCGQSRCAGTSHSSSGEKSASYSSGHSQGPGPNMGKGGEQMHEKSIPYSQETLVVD

The assay has as its target Apelin receptor (Homo sapiens) (UniProt P35414). The assay can be described thus: apelin receptor inhibitors, concentration-response – cell-based, luminescence, uHTS hits, dose response (AID 2784). The settings on record: APJ beta-arrestin recruitment, antagonist mode. In general terms: Activated receptors often draw arrestin, which recruitment assays turn into a signal.
The term IC50 denotes the concentration at which inhibition is half-maximal. Take `CCOC(=O)C1=C(C)NC2=C(C(=O)CC(c3cccs3)C2)C1c1cccs1` (configuration not stated): the IC50 entry was “inactive”. What is called pIC50 is the negative decadic logarithm of the IC50, by convention in mol/L. `COc1ccc2c(c1)C(=O)[C@H](O)[C@@H](c1ccc(OC)c(Br)c1)O2`: the pIC50 was 5.51. In the case of `CC1=NN(C(N)=S)C(=O)C1N=Nc1ccc([N+](=O)[O-])cc1` (configuration not stated), the IC50 is > 40 µM (inactive). Turning to `COc1ccc2c(c1)C(=O)[C@@H](O)[C@H](c1ccc(OC)c(Br)c1)O2`, the IC50 was > 40 µM (inactive). On the same count and under the same terms, as for `COc1ccc(NS(=O)(=O)c2cc([N+](=O)[O-])ccc2N/N=C\c2c(C)[nH]c3ccccc23)cc1`, the figure is > 40 µM (inactive). Regarding `O=[N+]([O-])c1ccc(O)c(/C=N/Nc2ccc(Cl)nn2)c1`, the negative-log IC50 (pIC50) was 5.38. On to `CCOC(=O)C1=NNC(C(=O)c2ccc(Cl)cc2)C1c1ccccc1` (configuration not stated), for which the pIC50 is 4.97. Take `CC1=NN(c2ccc(C)cc2)C(=O)/C1=C/c1ccc(-c2cc([N+](=O)[O-])ccc2O)o1`: the IC50 is > 40 µM (inactive). On the same count and under the same terms, as for `CC1=Nc2ccccc2/C1=C/c1sc(=N)n(-c2nccs2)c1O`, the figure is > 40 µM (inactive). Turning to `CN(/N=C/c1cc([N+](=O)[O-])ccc1O)c1ccccc1`, the IC50 result was “inactive”. Same read-out and setting: as for `O=C(CCCC(=O)Nc1cccc(Br)c1)N/N=C/c1cc([N+](=O)[O-])ccc1O`, the entry is “inactive”; as for `O=C(O)c1ccccc1N=Nc1c(O)[nH]c2ccc([N+](=O)[O-])cc12`, > 40 µM (inactive).

In the case of `COC(=O)C1NN=C(C(=O)c2ccc(Cl)cc2)C1c1ccc(OC)cc1` (configuration not stated), the pIC50 is 5.14.

Regarding `Cc1ncc(CO)c(/C=N/Nc2ccc(C(F)(F)F)cn2)c1O`, the pIC50 is 5.03. Regarding `Cn1c(O)c(N=Nc2nc(-c3ccccc3)cs2)c2ccccc21`, the IC50 is > 40 µM (inactive). In the case of `CCOCCOC(=O)C1=C(C)NC2=C(C(=O)CC(c3cccs3)C2)C1c1ccsc1` (configuration not stated), the IC50 is > 40 µM (inactive). Same read-out and setting: as for `Cc1ccc(NS(=O)(=O)c2cc([N+](=O)[O-])ccc2N/N=C/c2sc(N3CCOCC3)nc2-c2ccccc2)c(C)c1`, the figure is > 40 µM (inactive).

(Values after PubChem BioAssay AID2784 (Sanford-Burnham Center for Chemical Genomics, 2010).)
